Measurements as given in ChEMBL document CHEMBL2396598, “Anti-neuroinflammatory diarylheptanoids from the rhizomes of Dioscorea nipponica” (Bioorg Med Chem Lett, 2013).

Experiments:
[1] = Cytotoxicity against LPS-treated mouse BV2 cells assessed as cell viability at 20 uM relative to control; assay type: cell-based, BV-2; conditions: read-out: Activity
BV-2 = assay: Antineuroinflammatory activity in mouse BV2 cells assessed as inhibition of LPS-induced nitric oxide production after 24 hrs by Griess assay; assay type: functional, cell-based; conditions: BV-2, 24 h

Compound `COc1cc(/C=C/C(=O)/C=C/c2ccc(O)cc2)ccc1O` has a viability at 20 µM [1] of 25.5% and an IC50 (BV-2) of 5.99 µM.

In the case of `CNC(=N)NCCC[C@H](N)C(=O)O` [TILARGININE], the viability at 20 µM [1] is reported as 103%.

`COc1cc(CC[C@H]2C[C@H](O)C[C@@H](c3ccc(O)c(OC)c3)O2)ccc1O` showed a viability at 20 µM [1] of 116% and an IC50 (BV-2) of 45.9 µM.

Compound `COc1cc(CC[C@@H](O)C[C@H](O)CCc2ccc(O)c(O)c2)ccc1O` has a viability at 20 µM [1] of 99.2% and an IC50 (BV-2) of 89.7 µM.

Compound `O=C(/C=C/C=C/c1ccc(O)c(O)c1)CCc1ccc(O)cc1` has a viability at 20 µM [1] of 104% and an IC50 (BV-2) of 14.4 µM.

`COc1cc(CC[C@H]2C[C@@H](O)C[C@@H](c3ccc(O)c(OC)c3)O2)ccc1O` showed a viability at 20 µM [1] of 109% and an IC50 (BV-2) of 95.1 µM.

Work on `O=C(/C=C/c1ccc(O)cc1)C[C@H](O)CCc1ccc(O)cc1` yielded a viability at 20 µM [1] of 99.4% and an IC50 (BV-2) of 57.1 µM.

Work on `COc1cc(/C=C/C=C/C(=O)CCc2ccc(O)cc2)ccc1O` yielded a viability at 20 µM [1] of 115% and an IC50 (BV-2) of 13.4 µM.

In the case of `Oc1ccc(CC[C@H]2C[C@H](O)C[C@@H](c3ccc(O)cc3)O2)cc1`, the viability at 20 µM [1] is reported as 95.6% and the IC50 (BV-2) is reported as 38.1 µM.

`COc1ccc(/C=C/C=C/C(=O)CCc2ccc(O)cc2)cc1` gave a viability at 20 µM [1] of 18.5% and an IC50 (BV-2) of 8.44 µM.

`O=C(/C=C/C=C/c1ccc(O)c(O)c1)CCc1ccc(O)c(O)c1` gave a viability at 20 µM [1] of 24.6% and an IC50 (BV-2) of 7.84 µM.

`Oc1ccc(/C=C/[C@H]2C[C@H](O)C[C@@H](c3ccc(O)cc3)O2)cc1` gave a viability at 20 µM [1] of 91.4% and an IC50 (BV-2) of 18.6 µM.

`Oc1ccc(CC[C@H]2C[C@@H](O)C[C@@H](c3ccc(O)cc3)O2)cc1` gave a viability at 20 µM [1] of 96.8% and an IC50 (BV-2) of 39.7 µM.
